Assay [1] concerns the target Carbonic anhydrase 9 (Homo sapiens, UniProt Q16790). Briefly: Inhibition of recombinant human carbonic anhydrase 9 preincubated for 15 min to 72 hrs by stopped flow CO2 hydrase assay.
The target of assay [2] is Carbonic anhydrase 1 (Homo sapiens, UniProt P00915). Nature of the assay: Inhibition of recombinant human carbonic anhydrase 1 preincubated for 15 min to 72 hrs by stopped flow CO2 hydrase assay.
In assay [3] the target is Carbonic anhydrase 2 (Homo sapiens, UniProt P00918). Briefly: Inhibition of recombinant human carbonic anhydrase 2 preincubated for 15 min to 72 hrs by stopped flow CO2 hydrase assay.

A value given as a limit tells only on which side of the number the result lay.

Experimental findings from ChEMBL document CHEMBL3808336, “Pyrazolylbenzo[d]imidazoles as new potent and selective inhibitors of carbonic anhydrase isoforms hCA IX and XII” (Bioorg Med Chem, 2016) are described below.

As a reminder, the Ki is a dissociation constant, usually derived from enzyme kinetics or from competition with a known ligand.

Chain of Carbonic anhydrase 1 (P00915 whole entry): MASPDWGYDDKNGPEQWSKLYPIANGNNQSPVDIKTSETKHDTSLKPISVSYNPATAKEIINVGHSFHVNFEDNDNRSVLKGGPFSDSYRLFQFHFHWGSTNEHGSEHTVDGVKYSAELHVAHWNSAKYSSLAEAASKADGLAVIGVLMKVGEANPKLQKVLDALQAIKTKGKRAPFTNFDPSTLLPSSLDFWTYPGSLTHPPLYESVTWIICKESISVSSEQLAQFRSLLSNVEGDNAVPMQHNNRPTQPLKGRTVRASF

As to `c1ccc(-c2nn(-c3ccccc3)cc2-c2nc3ccccc3[nH]2)cc1`, the Ki in assay [1] was 55.9 nM; in assay [2], over 40000 nM; in assay [3] it was over 40000 nM.
For the compound `Fc1ccc(-c2nn(-c3ccccc3)cc2-c2nc3ccccc3[nH]2)cc1`, the Ki in assay [2] and in assay [3] was over 40000 nM in each case.
Turning to `Clc1ccc(-c2nn(-c3ccccc3)cc2-c2nc3ccccc3[nH]2)cc1`, the values for the Ki in assay [1], in assay [2] and in assay [3] were 7.5 nM, over 40000 nM and over 40000 nM, respectively.
For the compound `COc1ccc(-c2nn(-c3ccccc3)cc2-c2nc3ccccc3[nH]2)cc1`, the Ki was 48.7 nM in assay [1], over 40000 nM in assay [2] and over 40000 nM in assay [3].
For the compound `NS(=O)(=O)c1ccc(-n2cc(-c3nc4ccccc4[nH]3)c(-c3ccc(Cl)cc3)n2)cc1`, the Ki in assay [1] was 70.2 nM.
As for `NS(=O)(=O)c1ccc(-n2cc(-c3nc4ccccc4[nH]3)c(-c3ccc(F)cc3)n2)cc1`, the Ki in assay [1] came out at 74.7 nM.
On the same count and under the same terms, the result for `NS(=O)(=O)c1ccc(-n2cc(-c3nc4ccccc4[nH]3)c(-c3ccccc3)n2)cc1` reads 24.9 nM; that for `NS(=O)(=O)c1ccc(-n2cc(-c3nc4ccccc4[nH]3)c(-c3ccc(Br)cc3)n2)cc1`, 641 nM.
With `Cc1ccc(-c2nn(-c3ccccc3)cc2-c2nc3ccccc3[nH]2)cc1`, the figures for the Ki in assay [1], in assay [2] and in assay [3] were 23.3 nM, over 40000 nM and over 40000 nM, respectively.
Regarding `Brc1ccc(-c2nn(-c3ccccc3)cc2-c2nc3ccccc3[nH]2)cc1`, the Ki in assay [1] is 55.1 nM; in assay [3], over 40000 nM.
Take `COc1ccc(-c2nn(-c3ccc(S(N)(=O)=O)cc3)cc2-c2nc3ccccc3[nH]2)cc1`: the Ki in assay [1] is 554 nM.
